# Results published in ChEMBL document CHEMBL5696441 (Nat Chem Biol, 2011).
# Active and inactive are the calls of the source. No cut-off for these calls is given here.
# How the values were obtained:
# [1] = biological target: Tyrosine-protein kinase CSK (Homo sapiens) (UniProt P41240); assay: Inhibition of human CSK assessed as residual activity at 1 uM using polyEY as substrate in presence of 33P-ATP by ProQinase assay relative to control
# [2] = biological target: Ribosomal protein S6 kinase alpha-2 (Homo sapiens) (UniProt Q15349); assay: Inhibition of N-terminal kinase domain RPS6KA2 (unknown origin) assessed as remaining activity at 1 uM by Kinome scan method relative to control
# Ribosomal protein S6 kinase alpha-2 (Homo sapiens), sequence (Q15349 whole entry, the tested form may be a part): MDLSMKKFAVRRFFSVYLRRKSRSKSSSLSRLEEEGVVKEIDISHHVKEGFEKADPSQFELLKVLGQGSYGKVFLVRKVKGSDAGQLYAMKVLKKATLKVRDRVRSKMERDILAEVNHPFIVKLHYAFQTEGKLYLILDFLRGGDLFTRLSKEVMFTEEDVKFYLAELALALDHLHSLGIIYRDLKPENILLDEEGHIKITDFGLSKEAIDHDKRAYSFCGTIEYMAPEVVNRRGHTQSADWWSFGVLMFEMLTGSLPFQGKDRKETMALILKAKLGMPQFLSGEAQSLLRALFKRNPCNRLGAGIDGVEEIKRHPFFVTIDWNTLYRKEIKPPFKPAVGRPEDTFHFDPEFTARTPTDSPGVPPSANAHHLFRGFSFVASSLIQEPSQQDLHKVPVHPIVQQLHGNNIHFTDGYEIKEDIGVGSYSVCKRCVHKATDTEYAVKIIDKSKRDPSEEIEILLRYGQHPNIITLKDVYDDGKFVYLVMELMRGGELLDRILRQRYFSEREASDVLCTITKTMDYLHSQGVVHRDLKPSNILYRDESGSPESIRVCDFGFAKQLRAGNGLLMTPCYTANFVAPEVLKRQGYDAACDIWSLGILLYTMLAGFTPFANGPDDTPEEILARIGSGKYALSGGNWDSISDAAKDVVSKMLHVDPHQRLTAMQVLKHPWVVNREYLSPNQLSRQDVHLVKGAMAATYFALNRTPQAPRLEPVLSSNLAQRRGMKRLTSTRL
# [3] = biological target: Receptor-interacting serine/threonine-protein kinase 2 (Homo sapiens) (UniProt O43353); assay: Inhibition of RIPK2 (unknown origin) assessed as remaining activity at 1 uM by Kinome scan method relative to control
# [4] = biological target: Mitogen-activated protein kinase kinase kinase 9 (Homo sapiens) (UniProt P80192); assay: Inhibition of MLK1 (unknown origin) assessed as remaining activity at 1 uM by Kinome scan method relative to control
# [5] = biological target: Tyrosine-protein kinase JAK1 (Homo sapiens) (UniProt P23458); assay: Inhibition of JAK1 JH2 domain (unknown origin) assessed as remaining activity at 1 uM by Kinome scan method relative to control
# Tyrosine-protein kinase JAK1 (Homo sapiens), sequence (P23458 whole entry, the tested form may be a part): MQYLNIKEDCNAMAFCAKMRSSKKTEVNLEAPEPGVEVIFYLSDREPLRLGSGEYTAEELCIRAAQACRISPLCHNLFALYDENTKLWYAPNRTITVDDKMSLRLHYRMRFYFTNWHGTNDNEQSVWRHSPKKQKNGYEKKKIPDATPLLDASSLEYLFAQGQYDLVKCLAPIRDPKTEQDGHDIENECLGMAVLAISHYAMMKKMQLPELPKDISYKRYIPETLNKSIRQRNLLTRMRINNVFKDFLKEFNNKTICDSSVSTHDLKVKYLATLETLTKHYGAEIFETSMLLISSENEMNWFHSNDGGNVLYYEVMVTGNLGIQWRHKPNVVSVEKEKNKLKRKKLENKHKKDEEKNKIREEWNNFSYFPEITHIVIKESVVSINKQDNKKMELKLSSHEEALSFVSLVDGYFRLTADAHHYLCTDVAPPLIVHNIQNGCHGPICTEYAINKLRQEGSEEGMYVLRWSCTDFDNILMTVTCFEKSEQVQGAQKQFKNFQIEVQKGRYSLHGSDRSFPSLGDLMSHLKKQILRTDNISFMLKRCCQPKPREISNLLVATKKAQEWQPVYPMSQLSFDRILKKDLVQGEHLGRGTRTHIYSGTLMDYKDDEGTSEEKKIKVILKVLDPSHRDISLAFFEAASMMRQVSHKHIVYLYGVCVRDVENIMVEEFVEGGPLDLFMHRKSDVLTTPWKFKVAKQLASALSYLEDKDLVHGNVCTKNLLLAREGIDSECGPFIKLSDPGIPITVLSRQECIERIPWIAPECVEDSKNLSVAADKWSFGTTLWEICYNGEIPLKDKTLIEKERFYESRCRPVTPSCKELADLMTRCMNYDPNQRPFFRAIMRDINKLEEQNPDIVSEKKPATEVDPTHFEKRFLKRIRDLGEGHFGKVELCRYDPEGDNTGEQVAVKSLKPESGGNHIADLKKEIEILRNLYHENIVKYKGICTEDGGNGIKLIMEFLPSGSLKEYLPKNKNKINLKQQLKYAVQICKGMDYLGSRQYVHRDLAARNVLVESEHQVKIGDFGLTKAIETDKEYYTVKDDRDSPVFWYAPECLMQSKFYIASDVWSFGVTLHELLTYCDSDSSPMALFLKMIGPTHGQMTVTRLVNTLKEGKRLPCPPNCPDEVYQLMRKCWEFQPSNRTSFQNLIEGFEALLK
# [6] = biological target: Tyrosine-protein kinase Fgr (Homo sapiens) (UniProt P09769); assay: Inhibition of FGR (unknown origin) assessed as remaining activity at 1 uM by Kinome scan method relative to control
# [7] = test system: Fibroblast growth factor receptor 3 (Homo sapiens), P22607 [G697C]; assay: Inhibition of FGFR3 G697C mutant (unknown origin) assessed as remaining activity at 1 uM by Kinome scan method relative to control
# [8] = biological target: Activated CDC42 kinase 1 (Homo sapiens) (UniProt Q07912); assay: Inhibition of human ACK1 assessed as residual activity at 1 uM using PolyEY as substrate in presence of 33P-ATP by ProQinase assay relative to control
# [9] = biological target: Ribosomal protein S6 kinase beta-2 (Homo sapiens) (UniProt Q9UBS0); assay: Inhibition of human S6K-beta assessed as residual activity at 1 uM using RBER-CHKtide as substrate in presence of 33P-ATP by ProQinase assay relative to control
# [10] = biological target: Serine/threonine-protein kinase PAK 4 (Homo sapiens) (UniProt O96013); assay: Inhibition of PAK4 (unknown origin) assessed as remaining activity at 1 uM by Kinome scan method relative to control
# Serine/threonine-protein kinase PAK 4 (Homo sapiens), sequence (O96013 whole entry, looked up): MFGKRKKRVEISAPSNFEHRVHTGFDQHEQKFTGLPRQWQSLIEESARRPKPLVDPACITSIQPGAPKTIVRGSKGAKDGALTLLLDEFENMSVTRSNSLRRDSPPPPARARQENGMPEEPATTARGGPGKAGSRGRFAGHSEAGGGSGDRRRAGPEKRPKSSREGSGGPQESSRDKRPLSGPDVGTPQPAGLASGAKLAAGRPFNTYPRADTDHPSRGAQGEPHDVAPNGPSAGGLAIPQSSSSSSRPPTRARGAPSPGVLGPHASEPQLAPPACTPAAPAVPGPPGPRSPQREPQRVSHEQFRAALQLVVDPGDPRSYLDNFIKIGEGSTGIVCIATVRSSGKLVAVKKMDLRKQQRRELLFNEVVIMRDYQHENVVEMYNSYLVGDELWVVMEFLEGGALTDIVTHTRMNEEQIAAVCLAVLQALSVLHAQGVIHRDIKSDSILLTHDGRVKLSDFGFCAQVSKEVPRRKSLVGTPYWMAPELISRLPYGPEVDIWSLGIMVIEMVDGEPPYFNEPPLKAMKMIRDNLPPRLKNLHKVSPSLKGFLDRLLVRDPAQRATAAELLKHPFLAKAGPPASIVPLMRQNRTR
# [11] = biological target: Ephrin type-B receptor 2 (Homo sapiens) (UniProt P29323); assay: Inhibition of EPHB2 (unknown origin) assessed as remaining activity at 1 uM by Kinome scan method relative to control
# Ephrin type-B receptor 2 (Homo sapiens), sequence (P29323 whole entry): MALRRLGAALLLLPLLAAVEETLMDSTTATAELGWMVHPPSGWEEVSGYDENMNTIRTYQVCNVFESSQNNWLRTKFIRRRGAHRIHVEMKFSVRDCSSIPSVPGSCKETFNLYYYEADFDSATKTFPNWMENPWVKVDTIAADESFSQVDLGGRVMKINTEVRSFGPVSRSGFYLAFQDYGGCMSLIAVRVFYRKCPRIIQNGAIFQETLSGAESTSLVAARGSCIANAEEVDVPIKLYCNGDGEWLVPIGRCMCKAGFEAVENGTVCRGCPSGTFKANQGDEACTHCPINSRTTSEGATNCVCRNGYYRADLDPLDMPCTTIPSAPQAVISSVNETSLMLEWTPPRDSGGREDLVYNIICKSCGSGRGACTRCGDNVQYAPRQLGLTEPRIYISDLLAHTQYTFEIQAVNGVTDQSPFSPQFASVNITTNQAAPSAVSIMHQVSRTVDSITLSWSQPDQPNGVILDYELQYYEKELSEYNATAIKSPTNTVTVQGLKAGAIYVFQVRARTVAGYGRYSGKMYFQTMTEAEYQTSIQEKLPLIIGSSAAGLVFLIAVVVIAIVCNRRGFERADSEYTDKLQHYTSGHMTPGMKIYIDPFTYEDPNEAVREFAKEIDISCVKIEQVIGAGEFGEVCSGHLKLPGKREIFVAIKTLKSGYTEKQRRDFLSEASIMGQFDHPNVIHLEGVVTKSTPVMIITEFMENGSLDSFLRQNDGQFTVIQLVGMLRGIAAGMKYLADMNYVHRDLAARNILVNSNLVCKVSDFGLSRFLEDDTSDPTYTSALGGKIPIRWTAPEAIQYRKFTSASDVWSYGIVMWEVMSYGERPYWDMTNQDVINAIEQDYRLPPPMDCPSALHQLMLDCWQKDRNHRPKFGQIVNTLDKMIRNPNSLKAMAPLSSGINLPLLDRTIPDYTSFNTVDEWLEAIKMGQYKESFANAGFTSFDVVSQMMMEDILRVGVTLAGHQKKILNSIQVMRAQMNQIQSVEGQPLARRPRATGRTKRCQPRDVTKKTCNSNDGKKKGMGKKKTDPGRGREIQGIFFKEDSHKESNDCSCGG
# [12] = biological target: DNA-dependent protein kinase catalytic subunit (Homo sapiens) (UniProt P78527); assay: Inhibition of human DNPK1 assessed as residual activity at 1 uM using RBER-GSK3 as substrate in presence of 33P-ATP by ProQinase assay relative to control
# [13] = biological target: MAP kinase p38 (Homo sapiens) (UniProt O15264+Q15759+Q16539+P53778); assay: Inhibition of p38-MAPK in human THP-1 cells assessed as change in HSP27 phosphorylation at Ser82 level at 80 nM preincubated for 30 mins in the presence of TNFalpha stimulation for 20 mins by western blot analysis; type: cell-based
# [14] = biological target: CDK1/Cyclin E (Homo sapiens) (UniProt P06493+P24864); assay: Inhibition of human CDK1/Cyclin E1 assessed as residual activity at 1 uM using RBER-CHKtide as substrate in presence of 33P-ATP by ProQinase assay relative to control; type: protein-complex assay
# [15] = biological target: Dual specificity protein kinase TTK (Homo sapiens) (UniProt P33981); assay: Inhibition of TTK (unknown origin) assessed as remaining activity at 1 uM by Kinome scan method relative to control
# [16] = biological target: Tyrosine-protein kinase BTK (Homo sapiens) (UniProt Q06187); assay: Inhibition of human BTK assessed as residual activity at 1 uM using PolyEY as substrate in presence of 33P-ATP by ProQinase assay relative to control
# [17] = biological target: CDK8/Cyclin C (Homo sapiens) (UniProt P49336+P24863); assay: Inhibition of human CDK8/CyclinC assessed as residual activity at 1 uM using RBER-CHKtide as substrate in presence of 33P-ATP by ProQinase assay relative to control; type: protein-complex assay
# [18] = biological target: Ephrin type-A receptor 8 (Homo sapiens) (UniProt P29322); assay: Inhibition of EPHA8 (unknown origin) assessed as remaining activity at 1 uM by Kinome scan method relative to control
# [19] = test system: Leucine-rich repeat serine/threonine-protein kinase 2 (Homo sapiens), Q5S007 [R1441C]; assay: Inhibition of human LRRK2 R1441C mutant assessed as residual activity at 1 uM using RBER-CHKtide as substrate in presence of 33P-ATP by ProQinase assay relative to control
# [20] = biological target: Cyclin-dependent kinase 1/cyclin B1 (Homo sapiens) (UniProt P06493+P14635); assay: Inhibition of human CDK1/CycB1 assessed as residual activity at 1 uM using RBER-CHKtide as substrate in presence of 33P-ATP by ProQinase assay relative to control; type: protein-complex assay
# [21] = biological target: Dual specificity protein kinase CLK2 (Homo sapiens) (UniProt P49760); assay: Inhibition of human CLK2 assessed as residual activity at 1 uM using RBER-GSK3 as substrate in presence of 33P-ATP by ProQinase assay relative to control
# [22] = biological target: Casein kinase I isoform epsilon (Homo sapiens) (UniProt P49674); assay: Inhibition of human CK1epsilon assessed as residual activity at 1 uM using casein as substrate in presence of 33P-ATP by ProQinase assay relative to control
# [23] = biological target: Serine/threonine-protein kinase PRP4 homolog (Homo sapiens) (UniProt Q13523); assay: Inhibition of PRP4 (unknown origin) assessed as remaining activity at 1 uM by Kinome scan method relative to control
# [24] = biological target: Tyrosine-protein kinase ABL1 (Homo sapiens) (UniProt P00519); assay: Inhibition of human ABL1 assessed as residual activity at 1 uM using poly(Ala,Glu,Lys,Tyr)6:2:5:1 as substrate in presence of 33P-ATP by ProQinase assay relative to control
# Tyrosine-protein kinase ABL1 (Homo sapiens), sequence (P00519 whole entry): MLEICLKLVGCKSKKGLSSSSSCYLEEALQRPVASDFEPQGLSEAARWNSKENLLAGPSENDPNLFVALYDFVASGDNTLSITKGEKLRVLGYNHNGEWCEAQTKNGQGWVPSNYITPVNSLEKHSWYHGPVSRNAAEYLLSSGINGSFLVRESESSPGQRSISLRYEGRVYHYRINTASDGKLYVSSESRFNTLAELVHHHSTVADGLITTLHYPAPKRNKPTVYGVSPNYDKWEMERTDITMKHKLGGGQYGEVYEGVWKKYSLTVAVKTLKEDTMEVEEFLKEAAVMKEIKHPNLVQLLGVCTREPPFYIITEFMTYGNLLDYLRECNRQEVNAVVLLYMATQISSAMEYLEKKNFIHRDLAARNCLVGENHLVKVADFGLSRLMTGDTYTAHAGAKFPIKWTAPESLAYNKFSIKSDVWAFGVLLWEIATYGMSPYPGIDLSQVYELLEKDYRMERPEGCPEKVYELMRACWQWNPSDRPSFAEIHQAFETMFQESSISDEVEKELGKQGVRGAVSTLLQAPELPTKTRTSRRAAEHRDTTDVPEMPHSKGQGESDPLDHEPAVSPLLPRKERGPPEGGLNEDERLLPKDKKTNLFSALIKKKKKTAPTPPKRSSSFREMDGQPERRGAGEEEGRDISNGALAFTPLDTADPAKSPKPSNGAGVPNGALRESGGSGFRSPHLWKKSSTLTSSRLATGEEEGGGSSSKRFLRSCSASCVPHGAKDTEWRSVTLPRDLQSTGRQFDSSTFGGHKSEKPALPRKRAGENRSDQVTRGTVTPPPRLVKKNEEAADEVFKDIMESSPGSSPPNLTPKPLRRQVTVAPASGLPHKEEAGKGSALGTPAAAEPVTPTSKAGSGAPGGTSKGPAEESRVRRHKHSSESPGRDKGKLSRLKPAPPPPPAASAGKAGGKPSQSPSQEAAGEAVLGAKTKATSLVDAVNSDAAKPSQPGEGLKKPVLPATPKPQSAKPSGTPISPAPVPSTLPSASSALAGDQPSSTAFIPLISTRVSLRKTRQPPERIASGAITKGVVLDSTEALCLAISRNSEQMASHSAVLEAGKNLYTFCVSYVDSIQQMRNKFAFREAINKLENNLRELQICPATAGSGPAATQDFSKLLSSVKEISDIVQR
# [25] = biological target: Activin receptor type-1 (Homo sapiens) (UniProt Q04771); assay: Inhibition of human ACVR1 assessed as residual activity at 1 uM using RBER-GSK3(14-27) as substrate in presence of 33P-ATP by ProQinase assay relative to control
# [26] = biological target: Serine/threonine-protein kinase 16 (Homo sapiens) (UniProt O75716); assay: Inhibition of STK16 (unknown origin) assessed as remaining activity at 1 uM by Kinome scan method relative to control
# Serine/threonine-protein kinase 16 (Homo sapiens), sequence (O75716 whole entry): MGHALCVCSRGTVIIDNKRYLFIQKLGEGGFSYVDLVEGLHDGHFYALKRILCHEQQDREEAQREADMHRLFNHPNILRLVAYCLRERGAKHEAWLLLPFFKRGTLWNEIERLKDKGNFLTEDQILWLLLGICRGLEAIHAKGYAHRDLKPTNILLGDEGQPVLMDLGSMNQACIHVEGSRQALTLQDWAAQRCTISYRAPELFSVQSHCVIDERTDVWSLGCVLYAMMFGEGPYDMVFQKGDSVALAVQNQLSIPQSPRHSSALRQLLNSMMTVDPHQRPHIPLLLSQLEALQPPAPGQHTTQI
# [27] = test system: Epidermal growth factor receptor (Homo sapiens), P00533 [L858R]; assay: Inhibition of human EGFR L858R mutant assessed as residual activity at 1 uM using PolyEY as substrate in presence of 33P-ATP by ProQinase assay relative to control
compound,measurement,setting,value
O=C1c2ccc(Nc3ccc(F)cc3F)cc2CCc2ccc(OC[C@H](O)CO)cc21 [Skepinone-L],Activity,[1],111%
same,Activity,[2],100%
same,Activity,[3],87%
same,Activity,[4],100%
same,Activity,[5],86%
same,Activity,[6],100%
same,Activity,[7],87%
same,Activity,[8],108%
same,Activity,[9],89%
same,Activity,[10],100%
same,Activity,[11],97%
same,Activity,[12],82%
same,inhibition,[13],Active
same,Activity,[14],87%
same,Activity,[15],100%
same,Activity,[16],100%
same,Activity,[17],105%
same,Activity,[18],90%
same,Activity,[19],89%
same,Activity,[20],83%
same,Activity,[21],89%
same,Activity,[22],86%
same,Activity,[23],100%
same,Activity,[24],95%
same,Activity,[25],94%
same,Activity,[26],87%
same,Activity,[27],89%
